Source: patent US9048628B2, “Solid-state dye laser medium and process for production thereof” (KYUSHU UNIVERSITY, NATIONAL UNIVERSITY CORPORATION, priority 2011, dated 2015)

How the values were obtained:
[1] = Maximum concentration soluble in polydimethylsiloxane (PDMS) when silicone oil was used; type: physicochemical; conditions: silicone oil used as in Example 2
Text: A DFB laser was produced in the same manner as in Example 1, except that a silicone oil (KF-1065, produced by Shin-Etsu Chemical Co., Ltd.) was used instead of toluene, and that the step of removing toluene was not performed.
(§1) Using the dyes indicated below, maximum concentrations at which they were soluble in polydimethylsiloxane (PDMS) were investigated in the same manners as in Examples 1 and 2.

[2] = Maximum concentration soluble in polydimethylsiloxane (PDMS) when toluene was used; type: physicochemical
Experimental: Pyrromethene 597 (PM597, produced by Exciton) as a dye was dissolved in toluene to prepare a solution of a saturated concentration (100 to 130 mmol/L). This dye solution was mixed at a mixing ratio of […] (volume ratio) with a dimethylsiloxane oligomer (SIM-360, produced by Shin-Etsu Chemical Co., Ltd.) being a polydimethylsiloxane precursor, and the mixture was stirred for 2 days for thorough uniform dispersing. Then, the dispersion was further heated at 72° C. to evaporate toluene, thus adjusting the system to a final dye concentration of 3 mmol/L.
as §1

[3] = dye unchanged, without silicone oil

SMILES | Behavior of dissolution in PDMS when silicone oil was used: State [1] | Highest concentration dissolving in dimethylsiloxane [2, 3] | Behavior of dissolution in PDMS when toluene was used: State ([2]; toluene used as in Example 1) | Dissolution in dimethylsiloxane (in words) [2, 3]
CC1=C(S(=O)(=O)[O-])C(C)=[N+]2C1=C(C)c1c(C)c(S(=O)(=O)[O-])c(C)n1[B-]2(F)F.[Na+].[Na+] [PM556] | dispersed | – | – | –
CCC1=C(C)C2=C(C)c3c(C)c(CC)c(C)n3[B-](F)(F)[N+]2=C1C [PM567] | dissolved | – | – | –
CCCCC1=C(C)C2=C(C)c3c(C)c(CCCC)c(C)n3[B-](F)(F)[N+]2=C1C [PM580] | lumpy→ | – | – | –
CC1=C(C(C)(C)C)C(C)=[N+]2C1=C(C)c1c(C)c(C(C)(C)C)c(C)n1[B-]2(F)F [PM597] | dissolved | 3 mmol/L | dissolved | –
CCC1=C(C)C2=C(COC(C)=O)c3c(C)c(CC)c(C)n3[B-](F)(F)[N+]2=C1C [PM605] | dissolved | – | – | –

Second part, led by results:

Behavior of dissolution in PDMS when silicone oil was used: State [1] | Highest concentration dissolving in dimethylsiloxane [2, 3] | Behavior of dissolution in PDMS when toluene was used: State ([2]; toluene used as in Example 1) | SMILES | Dissolution in dimethylsiloxane (in words) [2, 3]
dissolved | – | – | CC1=C(C)C(C)=[N+]2C1=C(C#N)c1c(C)c(C)c(C)n1[B-]2(F)F [PM650] | poses difficulty in dissolving to a lower limit concentration at which laser oscillation becomes possible
lumpy→ | – | – | CCN=c1cc2oc3cc(NCC)c(C)cc3c(-c3ccccc3C(=O)OCC)c-2cc1C.Cl [Rh6G] | –
